Assay results reported in patent US20250092044A1, “Kinase Inhibitors” (Incyte Corporation, priority 2023, published 2025).
Read-outs that look alike come from different tables or passages of the source.

Tests used:
[1] = molecular target: pseudo-kinase domain (JH2) of human V617F mutant JAK2 (Homo sapiens (Human), UniProt O60674, F794H/V617F/W659A/W777A); assay: JAK2 LanthaScreen JH2-V617F Binding Assay; conditions: read-out: JH2 V617F Bind IC50
Method: JAK2 JH2-V617F binding assay utilizes pseudo-kinase domain (JH2, amino-acids 536-812 with 3 surface mutations W659A, W777A, F794H) of human V617F mutant JAK2 expressed as C-terminal His-Avi-tagged, biotinylated protein in a baculovirus expression system (BPS Bioscience, Catalog #79498). The assay was conducted in black 384-well polystyrene plates in a final reaction volume of 20 μL. JAK2 JH2-V617F (0.26 nM) was incubated with compounds (100 nL serially diluted in DMSO) in the presence of 50 nM Fluorescent JAK2-JH2 Tracer (MedChem Express Catalog #HY-102055) and 0.25 nM Streptavidin-Tb cryptate (Cisbio Part #610SATLB) in assay buffer (50 mM Tris, pH=7.5, 10 mM MgCl2, 0.01% Brij-35, 0.1% BSA, 1 mM EGTA, 5% Glycerol and 5 mM DTT). Non-specific binding was accessed in the presence of 2 mM ATP. After incubation for 1 hour at 25° C., LanthaScreen signals were read on a PHERAstar FS plate reader (BMG LABTECH). Data was analyzed with IDBS XLfit and GraphPad Prism 5.0 software using a four parameter dose response curve to determine IC50 for each compound.

FaSSIF Solubility Assay = type: physicochemical; conditions: FaSSIF (fasted state simulated intestinal fluid), 25 °C, pH 6.5, fassif, thermodynamic from solid, FaSSIF pH=6.5, 25° C.
Text: The FaSSIF (Fasted State Simulated Intestinal Fluid) solubility assay can predict how an oral drug is likely to be dissolved and potentially absorbed in the upper intestine after drinking a glass of water. FaSSIF solubility assay utilizes biorelevant intestinal media (Biorelevant, Part #FFF01) comprised of physiological surfactants, bile salts, and phospholipids that are present in the gastrointestinal fluids it mimics. FaSSIF (pH=6.5) has the average pH of a fasted intestinal fluid with similar osmolarity. The FaSSIF buffer was prepared by adding 20 mL of phosphate buffer to FaSSIF Powder. The buffer was then added to the dry compound of interest at a concentration of 1 mg/mL and then incubated at 25° C. for 24 hours in a Rototherm Plus (Part #H2024). After incubation, the Eppendorf tubes were centrifuged and run on an Agilent 1260 LC-MS. The LC-MS method is a 5 min gradient method of 2% to 95% acetonitrile with water (0.05% TFA) using a Sunfire C18, 5 um 2.1×50 mm (Part #186002539) column. A dry reference compound of interest was diluted to a known 1 mg/mL concentration in 1:1 of water and acetonitrile. Step-wise serial dilutions were performed and run on an Agilent 1260 LC-MS using the same conditions to make a standard curve. The area under the curve is reported for the compound of interest in FaSSIF buffer and the reference standards. Calculations were performed and the predicted solubility, μg/mL, was reported for compounds of the examples.

[2] = tested on: STAT5 (Tyr694) phosphorylation in SET-2 cells; assay: STAT5 (Tyr694) Phosphorylation Cell Based Assay; conditions: Homo sapiens, 2 hours, read-out: SET2 IC50
Method: SET-2 cells was purchased from DSMZ (Germany). RPMI1640 medium, Fetal Bovine Serum and 384-white sold flat-bottom small volume plate were purchased from Thermo Fisher Scientific (Waltham, MA). Phospho-STAT5 (Tyr694) HTRF kit was purchased from Perkin Elmer (Waltham, MA).
SET-2 cells were cultured in RPMI media with 20% FBS at 37° C. in humidified incubator supplied with 5% CO2. On the day of assay, the cells were centrifuged to remove the culture media and resuspended with prewarmed RPMI with 10% FBS. Testing compounds were prepared by serial dilution in DMSO and 50 nL/well test compounds were transferred to the 384 white low volume cell culture plate (Greiner Bio-one) by ECHO liquid handler (Labcyte). The cells were then dispensed with Multidrop (Thermo Fisher, Waltham, MA) at 10 μL/well (7×10^6 cells/mL) with 0.5% DMSO in the final assay. After the treated cells were incubated for 2 hours at 37° C./5% CO2 incubator, 4 μL/well supplemented lysis buffer (100× blocking buffer diluted 25 fold in 4× lysis buffer, Perkin Elmer) were added and incubated at room temperature for 90 min on orbital shaker at 600 rpm. Phospho-STAT5 Cryptate antibody and Phospho-STAT5 d2 antibody (1:1 vol/vol) were premixed and diluted 20 fold with in the detection buffer (Perkin Elmer). 4 μL of the premixed antibody solution were added to each well followed with 24 hours incubation at room temperature on orbital shaker at 600 rpm. The product activity was determined by measuring the fluorescence at 620 nm and 665 nm on Pherastar microplate reader (BMG Labtech). A ratio is calculated (665/620) for each well. Wells with DMSO only served as the positive controls and wells containing high concentration of control compound were used as negative controls. IC50 determination was performed by fitting the curve of percent control activity versus the log of the compound concentration using the GraphPad Prism 7.0 software.

TRKA [3] = molecular target: TRKA (Homo sapiens (Human), UniProt P04629); assay: TRKA Enzymatic Assay; type: biochemical; conditions: 1 mM ATP
Method: (§1) The kinase assays were carried out at 24° C. temperature in assay buffer (HEPES 50 mM, pH 7.0, NaN3 0.02%, BSA 0.01%, Orthovanadate 0.1 mM, DTT 1 mM, MgCl2 10 mM) in a final volume of 10 μL. Testing compounds were prepared by serial dilution in DMSO and transferred to the plate wells by ECHO liquid handler (Labcyte) with 0.5% DMSO in the final assay. […]. Reactions were initiated by the addition of 5 μL ATP in assay buffer. The final 10 μL kinase reaction consisted of 0.58 nM TRKA, 1 mM ATP, 500 nM TK Substrate-biotin and SEB reagent 62.5 nM in assay buffer. […] After 60 minutes incubation at room temperature, the product activity was determined by measuring the fluorescence at 620 nm and 665 nm on Pherastar microplate reader (BMG Labtech). A ratio was calculated (665/620 nm) for each well. Wells with DMSO only served as the positive controls and wells containing no ATP were used as negative controls. IC50 determination was performed by fitting the curve of percent control activity versus the log of the compound concentration using the Gene data.

TRKA [4] = assay: TRKA Enzymatic Assay; type: biochemical
Method: as §1

FLT3 [5] = molecular target: FLT3 (Homo sapiens (Human), UniProt P36888); assay: FLT3 Enzymatic Assay; type: biochemical; conditions: 1 mM ATP
Method: (§2) The kinase assays were carried out at room temperature in assay buffer (HEPES 50 mM, pH 7.0, NaN3 0.02%, BSA 0.01%, Orthovanadate 0.1 mM, DTT 1 mM, MgCl2 10 mM) in a final volume of 10 μL. Testing compounds were prepared by serial dilution in DMSO and transferred to the plate wells by ECHO liquid handler (Labcyte) with 0.5% DMSO in the final assay. […]. Reactions were initiated by the addition of 5 μL ATP in assay buffer. The final 10 μL kinase reaction consists of 0.011 nM FLT3, 1 mM ATP, 500 nM TK Substrate-biotin and SEB reagent 62.5 nM in assay buffer. […] The plates were then sealed and centrifuged at 1800 rpm for 2 minutes. After 60 minutes incubation at room temperature, the product activity was determined by measuring the fluorescence at 620 nm and 665 nm on Pherastar microplate reader (BMG Labtech). A ratio is calculated (665/620 nm) for each well. Wells with DMSO only were served as the positive controls and wells containing no ATP were used as negative controls. IC50 determination was performed by fitting the curve of percent control activity versus the log of the compound concentration using the GraphPad Prism 7.0 software.

FLT3 [6] = assay: FLT3 Enzymatic Assay; type: biochemical
Method: as §2

Chain of pseudo-kinase domain (JH2) of human V617F mutant JAK2 (O60674 536-812 V617F/W659A/W777A/F794H): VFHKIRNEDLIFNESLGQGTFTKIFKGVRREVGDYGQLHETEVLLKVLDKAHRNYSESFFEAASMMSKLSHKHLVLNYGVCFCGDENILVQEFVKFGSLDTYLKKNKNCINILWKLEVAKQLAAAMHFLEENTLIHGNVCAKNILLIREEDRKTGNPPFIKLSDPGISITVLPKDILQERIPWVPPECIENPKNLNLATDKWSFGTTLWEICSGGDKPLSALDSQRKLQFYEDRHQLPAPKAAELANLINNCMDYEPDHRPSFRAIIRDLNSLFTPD
Chain of TRKA (Homo sapiens (Human), UniProt P04629) (P04629 33-796, species assumed): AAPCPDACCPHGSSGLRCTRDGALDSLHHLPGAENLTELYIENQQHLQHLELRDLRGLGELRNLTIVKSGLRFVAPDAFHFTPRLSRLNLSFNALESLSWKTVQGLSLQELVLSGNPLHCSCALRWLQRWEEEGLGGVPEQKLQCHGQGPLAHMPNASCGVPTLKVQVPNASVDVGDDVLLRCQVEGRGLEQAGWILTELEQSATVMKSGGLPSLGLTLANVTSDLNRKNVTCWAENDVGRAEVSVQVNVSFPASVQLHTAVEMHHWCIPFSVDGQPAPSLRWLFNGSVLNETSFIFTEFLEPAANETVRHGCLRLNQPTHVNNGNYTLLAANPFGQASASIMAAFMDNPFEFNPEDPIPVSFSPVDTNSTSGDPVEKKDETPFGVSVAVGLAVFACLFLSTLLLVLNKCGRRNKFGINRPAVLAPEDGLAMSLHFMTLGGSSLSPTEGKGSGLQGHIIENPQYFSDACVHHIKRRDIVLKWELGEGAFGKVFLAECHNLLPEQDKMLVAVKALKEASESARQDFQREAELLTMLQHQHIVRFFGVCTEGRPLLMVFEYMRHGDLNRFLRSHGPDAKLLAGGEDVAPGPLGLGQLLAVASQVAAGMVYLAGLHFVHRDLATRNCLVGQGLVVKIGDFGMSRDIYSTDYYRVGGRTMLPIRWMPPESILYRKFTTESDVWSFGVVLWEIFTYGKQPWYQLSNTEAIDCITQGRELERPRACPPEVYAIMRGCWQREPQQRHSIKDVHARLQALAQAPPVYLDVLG
Chain of FLT3 (Homo sapiens (Human), UniProt P36888) (P36888 27-993, species assumed): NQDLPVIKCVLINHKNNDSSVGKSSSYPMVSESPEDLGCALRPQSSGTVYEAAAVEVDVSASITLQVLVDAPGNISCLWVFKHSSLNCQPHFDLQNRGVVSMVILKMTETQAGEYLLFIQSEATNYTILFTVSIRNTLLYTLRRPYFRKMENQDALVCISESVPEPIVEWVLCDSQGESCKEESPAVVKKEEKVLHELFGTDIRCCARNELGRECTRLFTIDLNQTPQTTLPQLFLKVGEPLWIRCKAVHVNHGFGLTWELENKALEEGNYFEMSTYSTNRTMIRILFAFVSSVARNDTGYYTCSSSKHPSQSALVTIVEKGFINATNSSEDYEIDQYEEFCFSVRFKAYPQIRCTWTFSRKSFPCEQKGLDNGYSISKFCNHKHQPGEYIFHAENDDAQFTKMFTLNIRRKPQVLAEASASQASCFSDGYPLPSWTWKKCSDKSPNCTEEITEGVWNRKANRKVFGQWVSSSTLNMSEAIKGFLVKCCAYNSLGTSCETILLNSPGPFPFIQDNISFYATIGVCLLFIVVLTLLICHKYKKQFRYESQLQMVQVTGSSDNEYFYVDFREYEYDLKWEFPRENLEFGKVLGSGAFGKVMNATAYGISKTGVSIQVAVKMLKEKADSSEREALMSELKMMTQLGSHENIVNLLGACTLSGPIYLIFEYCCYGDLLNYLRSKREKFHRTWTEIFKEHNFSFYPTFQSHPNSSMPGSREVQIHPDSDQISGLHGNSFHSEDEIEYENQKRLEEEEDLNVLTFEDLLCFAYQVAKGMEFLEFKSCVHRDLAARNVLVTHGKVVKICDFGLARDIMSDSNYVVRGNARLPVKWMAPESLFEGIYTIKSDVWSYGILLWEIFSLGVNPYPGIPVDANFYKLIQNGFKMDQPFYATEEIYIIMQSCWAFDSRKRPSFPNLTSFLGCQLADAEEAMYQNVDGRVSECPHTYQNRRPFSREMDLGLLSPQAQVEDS

Structure (SMILES) | IC50 [1] | solubility at 24 h (FaSSIF Solubility Assay; read-out: FaSSIF solubility) | IC50 [2] | IC50 (TRKA [3]) | Selectivity TRKA/JH2 V617F (TRKA [4]) | solubility at 24 h (FaSSIF Solubility Assay; read-out: Solubility Fassif) | IC50 (FLT3 [5]) | Selectivity FLT3/JH2 V617F (FLT3 [6])
COc1ccc(-c2c(-c3cnn(Cc4ccncc4)c3)[nH]c3ncc4c(c23)n(C2CCCC2)c(=O)n4C)cc1 [Comparative Example D, reference compound] | ≤ 10 nM | < 20 µg/mL | – | – | – | – | – | –
CN(C)C(=O)c1ccc(-c2[nH]c3ncc4c(c3c2-c2ccc3c(cnn3C)c2)n(C2CCCC2)c(=O)n4C)cc1 [Comparative Example F, reference compound] | ≤ 10 nM | < 20 µg/mL | 300 to 800 nM | 25 to 250 nM | * (selectivity of ≤500-fold) | ≤ 50 µg/mL | 25 to 250 nM | * (selectivity of ≤500-fold)
